Laboratory results from patent US9125913B2, “Bcl-2-selective apoptosis-inducing agents for the treatment of cancer and immune diseases” (AbbVie Inc., priority 2008, dated 2015).

System: GST-Bcl-2
Experiment: TR-FRET binding assay, Bcl-2
Details: TR-FRET Ki values
Method in brief: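 Compounds serially diluted in DMSO from 50 μM (2× starting concentration, 10% DMSO), mixed with GST-tagged protein, F-Bak peptide probe and Tb-labeled antibody, incubated 3 h at room temperature.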

In the case of `CC1(C)CCC(CN2CCN(c3ccc(C(=O)NS(=O)(=O)c4ccc(NCCCn5ccnc5)c([N+](=O)[O-])c4)c(Oc4ccc5[nH]ccc5c4)c3)CC2)=C(c2ccc(Cl)cc2)C1` [EXAMPLE 377, 4-(4-{[2-(4-chlorophenyl)-4,4-dimethylcyclohex-1-en-1-yl]methyl}piperazin-1-yl)-N-[(4-{[3-(1H-imidazol-1-yl)propyl]amino}-3-nitrophenyl)sulfonyl]-2-(1H-indol-5-yloxy)benzamide], the “Binding selectivity ratio (Bcl-XL Ki/Bcl-2 Ki)” value (“Binding selectivity ratio” for short) is reported as 2317.4.
For `CC1(C)CCC(CN2CCN(c3ccc(C(=O)NS(=O)(=O)c4ccc(NCCN5CCNC(=O)C5)c([N+](=O)[O-])c4)c(Oc4cccc5[nH]ccc45)c3)CC2)=C(c2ccc(Cl)cc2)C1` [EXAMPLE 280, 4-(4-{[2-(4-chlorophenyl)-4,4-dimethylcyclohex-1-en-1-yl]methyl}piperazin-1-yl)-2-(1H-indol-4-yloxy)-N-[(3-nitro-4-{[2-(3-oxopiperazin-1-yl)ethyl]amino}phenyl)sulfonyl]benzamide], the “Binding selectivity ratio” value was 1097.2.
With `CN1CCC(O)(CCNc2ccc(S(=O)(=O)NC(=O)c3ccc(N4CCN(CC5=C(c6ccc(Cl)cc6)CC(C)(C)CC5)CC4)cc3Oc3ccc4[nH]ccc4c3)cc2[N+](=O)[O-])CC1` [EXAMPLE 211, 4-(4-{[2-(4-chlorophenyl)-4,4-dimethylcyclohex-1-en-1-yl]methyl}piperazin-1-yl)-N-[(4-{[2-(4-hydroxy-1-methylpiperidin-4-yl)ethyl]amino}-3-nitrophenyl)sulfonyl]-2-(1H-indol-5-yloxy)benzamide] the “Binding selectivity ratio” value was 651.1.
For `C[C@H](c1ccccc1-c1ccc(Cl)cc1)N1CCN(c2ccc(C(=O)NS(=O)(=O)c3ccc(NCC4CCOCC4)c([N+](=O)[O-])c3)c(Oc3cccc4[nH]ccc34)c2)CC1` [EXAMPLE 255, 4-{4-[(1R)-1-(4′-chloro-1,1′-biphenyl-2-yl)ethyl]piperazin-1-yl}-2-(1H-indol-4-yloxy)-N-({3-nitro-4-[(tetrahydro-2H-pyran-4-ylmethyl)amino]phenyl}sulfonyl)benzamide], the “Binding selectivity ratio” value was >84.2.
With `O=C(NS(=O)(=O)c1ccc(NC2CCN(S(=O)(=O)c3ccccc3)CC2)c([N+](=O)[O-])c1)c1ccc(N2CCN(Cc3ccccc3-c3ccc(Cl)cc3)CC2)cc1Oc1ccccc1` [Example 157, 4-{4-[(4′-chloro-1,1′-biphenyl-2-yl)methyl]piperazin-1-yl}-N-[(3-nitro-4-{[1-(phenylsulfonyl)piperidin-4-yl]amino}phenyl)sulfonyl]-2-phenoxybenzamide] the “Binding selectivity ratio” value was >148.2.
In the case of `CC1(C)CCC(CN2CCN(c3ccc(C(=O)NS(=O)(=O)c4ccc(NCCC#N)c([N+](=O)[O-])c4)c(Oc4ccc5[nH]ccc5c4)c3)CC2)=C(c2ccc(Cl)cc2)C1` [EXAMPLE 319, 4-(4-{[2-(4-chlorophenyl)-4,4-dimethylcyclohex-1-en-1-yl]methyl}piperazin-1-yl)-N-({4-[(2-cyanoethyl)amino]-3-nitrophenyl}sulfonyl)-2-(1H-indol-5-yloxy)benzamide], the “Binding selectivity ratio” value is reported as 503.4.
With `COCCNc1ccc(S(=O)(=O)NC(=O)c2ccc(N3CCN(CC4=C(c5ccc(Cl)cc5)CC(C)(C)CC4)CC3)cc2Oc2ccc3[nH]ccc3c2)cc1[N+](=O)[O-]` [Example 179, 4-(4-{[2-(4-chlorophenyl)-4,4-dimethylcyclohex-1-en-1-yl]methyl}piperazin-1-yl)-2-(1H-indol-5-yloxy)-N-({4-[(2-methoxyethyl)amino]-3-nitrophenyl}sulfonyl)benzamide] the “Binding selectivity ratio” value was >3642.4.
With `CC1(C)CCC(CN2CCN(c3ccc(C(=O)NS(=O)(=O)c4ccc(NC5CCS(=O)(=O)C5)c([N+](=O)[O-])c4)c(Oc4cccc5[nH]ccc45)c3)CC2)=C(c2ccc(Cl)cc2)C1` (stereo not shown) [EXAMPLE 299, 4-(4-{[2-(4-chlorophenyl)-4,4-dimethylcyclohex-1-en-1-yl]methyl}piperazin-1-yl)-N-({4-[(1,1-dioxidotetrahydrothien-3-yl)amino]-3-nitrophenyl}sulfonyl)-2-(1H-indol-4-yloxy)benzamide] the “Binding selectivity ratio” value was 577.7.
In the case of `CC1(C)CCC(CN2CCN(c3ccc(C(=O)NS(=O)(=O)c4ccc(NC5CCN(C6CCOCC6)CC5)c([N+](=O)[O-])c4)c(Nc4cccnc4)c3)CC2)=C(c2ccc(Cl)cc2)C1` [EXAMPLE 397, 4-(4-{[2-(4-chlorophenyl)-4,4-dimethylcyclohex-1-en-1-yl]methyl}piperazin-1-yl)-N-({3-nitro-4-[(1-tetrahydro-2H-pyran-4-ylpiperidin-4-yl)amino]phenyl}sulfonyl)-2-(pyridin-3-ylamino)benzamide], the “Binding selectivity ratio” value is reported as >28730.6285913286.
In the case of `CC1(C)CCC(CN2CCN(c3ccc(C(=O)NS(=O)(=O)c4ccc(NC5CCN(C6Cc7ccccc7C6)CC5)c([N+](=O)[O-])c4)c(Oc4ccc5[nH]ccc5c4)c3)CC2)=C(c2ccc(Cl)cc2)C1` [EXAMPLE 228, 4-(4-{[2-(4-chlorophenyl)-4,4-dimethylcyclohex-1-en-1-yl]methyl}piperazin-1-yl)-N-[(4-{[1-(2,3-dihydro-1H-inden-2-yl)piperidin-4-yl]amino}-3-nitrophenyl)sulfonyl]-2-(1H-indol-5-yloxy)benzamide], the “Binding selectivity ratio” value is reported as >141.4.
`CC1(C)CCC(CN2CCN(c3ccc(C(=O)NS(=O)(=O)c4ccc(NCC5CCC(F)(F)CC5)c([N+](=O)[O-])c4)c(Oc4cccc5[nH]cnc45)c3)CC2)=C(c2ccc(Cl)cc2)C1` [EXAMPLE 456, 2-(1H-benzimidazol-4-yloxy)-4-(4-{[2-(4-chlorophenyl)-4,4-dimethylcyclohex-1-en-1-yl]methyl}piperazin-1-yl)-N-[(4-{[(4,4-difluorocyclohexyl)methyl]amino}-3-nitrophenyl)sulfonyl]benzamide] was tested, and the “Binding selectivity ratio” value was 53.991.
`CO[C@H]1CC[C@H](CNc2ccc(S(=O)(=O)NC(=O)c3ccc(N4CCN(CC5=C(c6ccc(Cl)cc6)CC(C)(C)CC5)CC4)cc3Oc3cccc4[nH]ncc34)cc2[N+](=O)[O-])CC1` [EXAMPLE 446, Trans-4-(4-{[2-(4-chlorophenyl)-4,4-dimethylcyclohex-1-en-1-yl]methyl}piperazin-1-yl)-2-(1H-indazol-4-yloxy)-N-[(4-{[(4-methoxycyclohexyl)methyl]amino}-3-nitrophenyl)sulfonyl]benzamide] was tested, and the “Binding selectivity ratio” value was 508.4.
`O=C(NS(=O)(=O)c1ccc(NCCc2ccncc2)c([N+](=O)[O-])c1)c1ccc(N2CCN(Cc3ccccc3-c3ccc(Cl)cc3)CC2)cc1Oc1ccccc1` [Example 169, 4-{4-[(4′-chloro-1,1′-biphenyl-2-yl)methyl]piperazin-1-yl}-N-({3-nitro-4-[(2-pyridin-4-ylethyl)amino]phenyl}sulfonyl)-2-phenoxybenzamide] was tested, and the “Binding selectivity ratio” value was 91.4.
With `CC1(C)CCC(CN2CCN(c3ccc(C(=O)NS(=O)(=O)c4ccc(NC5CCN(CCO)CC5)c([N+](=O)[O-])c4)c(Oc4cccc5[nH]ccc45)c3)CC2)=C(c2ccc(Cl)cc2)C1` [EXAMPLE 191, 4-(4-{[2-(4-chlorophenyl)-4,4-dimethylcyclohex-1-en-1-yl]methyl}piperazin-1-yl)-N-[(4-{[1-(2-hydroxyethyl)piperidin-4-yl]amino}-3-nitrophenyl)sulfonyl]-2-(1H-indol-4-yloxy)benzamide] the “Binding selectivity ratio” value was 125.2.
In the case of `O=C(NS(=O)(=O)c1ccc(NCC2CCOCC2)c(S(=O)(=O)C(F)(F)F)c1)c1ccc(N2CCN(Cc3cc(OCCCN4CCCCC4)ccc3-c3ccc(Cl)cc3)CC2)cc1Oc1ccccc1` [Example 118, 4-(4-{[4′-chloro-4-(3-piperidin-1-ylpropoxy)-1,1′-biphenyl-2-yl]methyl}piperazin-1-yl)-2-phenoxy-N-({4-[(tetrahydro-2H-pyran-4-ylmethyl)amino]-3-[(trifluoromethyl)sulfonyl]phenyl}sulfonyl)benzamide], the “Binding selectivity ratio” value is reported as >858.3.
With `CC(c1ccccc1-c1ccc(Cl)cc1)N1CCN(c2ccc(C(=O)NS(=O)(=O)c3ccc(NC4CCN(C)CC4)c([N+](=O)[O-])c3)c(Oc3cccc4[nH]ccc34)c2)CC1` (stereo not shown) [EXAMPLE 206, 4-{4-[1-(4′-chloro-1,1′-biphenyl-2-yl)ethyl]piperazin-1-yl}-2-(1H-indol-4-yloxy)-N-({4-[(1-methylpiperidin-4-yl)amino]-3-nitrophenyl}sulfonyl)benzamide] the “Binding selectivity ratio” value was >7916.4.
In the case of `CC1(C)CCC(CN2CCN(c3ccc(C(=O)NS(=O)(=O)c4cnc(NCC5CCOCC5)c(Br)c4)c(Oc4ccc5[nH]ccc5c4)c3)CC2)=C(c2ccc(Cl)cc2)C1` [EXAMPLE 350, N-({5-bromo-6-[(tetrahydro-2H-pyran-4-ylmethyl)amino]pyridin-3-yl}sulfonyl)-4-(4-{[2-(4-chlorophenyl)-4,4-dimethylcyclohex-1-en-1-yl]methyl}piperazin-1-yl)-2-(1H-indol-5-yloxy)benzamide], the “Binding selectivity ratio” value is reported as >110.6.
For `CC1(C)CCC(CN2CCN(c3ccc(C(=O)NS(=O)(=O)c4ccc(NC5CCN(CCCO)CC5)c([N+](=O)[O-])c4)c(Oc4cccc5[nH]ccc45)c3)CC2)=C(c2ccc(Cl)cc2)C1` [EXAMPLE 195, 4-(4-{[2-(4-chlorophenyl)-4,4-dimethylcyclohex-1-en-1-yl]methyl}piperazin-1-yl)-N-[(4-{[1-(3-hydroxypropyl)piperidin-4-yl]amino}-3-nitrophenyl)sulfonyl]-2-(1H-indol-4-yloxy)benzamide], the “Binding selectivity ratio” value was 170.2.
For `CC1(C)CCC(CN2CCN(c3ccc(C(=O)NS(=O)(=O)c4ccc(NCC5CCS(=O)(=O)C5)c([N+](=O)[O-])c4)c(Oc4ccc5[nH]ccc5c4)c3)CC2)=C(c2ccc(Cl)cc2)C1` (stereo not shown) [EXAMPLE 275, 4-(4-{[2-(4-chlorophenyl)-4,4-dimethylcyclohex-1-en-1-yl]methyl}piperazin-1-yl)-N-[(4-{[(1,1-dioxidotetrahydrothien-3-yl)methyl]amino}-3-nitrophenyl)sulfonyl]-2-(1H-indol-5-yloxy)benzamide], the “Binding selectivity ratio” value was >6832.4.
